One data set concerns the target T1, MMP-13 catalytic domain (Homo sapiens, UniProt P45452).
T1 construct: use the catalytic domain of the MMP-13 enzyme, namely matrix metalloproteinase-13 catalytic domain (“MMP-13CD”)
As to the kind of experiment: MMP-13 catalytic domain inhibition (thiopeptolide substrate hydrolysis). The data set is classed as biochemical. The conditions noted are these: read-out: MMP-13CD IC50. From the text: The assays measure the amount by which a test compound reduces the hydrolysis of a thiopeptolide substrate catalyzed by a matrix metalloproteinase enzyme. […] One such assay is described below in Biological Method 1.
Some of the particular methods described below use the catalytic domain of the MMP-13 enzyme, namely matrix metalloproteinase-13 catalytic domain (“MMP-13CD”), rather than the corresponding full-length enzyme, MMP-13.
Thiopeptolide substrates show virtually no decomposition or hydrolysis at or below neutral pH in the absence of a matrix metalloproteinase enzyme. A typical thiopeptolide substrate commonly utilized for assays is Ac-Pro-Leu-Gly-thioester-Leu-Leu-Gly-OEt. […] Assays are carried out with and without matrix metalloproteinase inhibitor compounds, and the amount of hydrolysis is compared for a determination of inhibitory activity of the test compounds.

Regarding `COc1cccc(Cn2nnc(-c3cccc(C(=O)NCc4ccc(C(=O)O)cc4)c3)n2)c1` [Example 4, 4-({3-[2-(3-Methoxy-benzyl)-2H-tetrazol-5-yl]-benzoylamino}-methyl)-benzoic acid], the melting point (in general, the temperature of the solid-liquid transition) was in the range of 204 to 206 °C. The IC50 (as a rule, the midpoint of a concentration-inhibition curve) on MMP-13 catalytic domain is 0.039 µM. Regarding `COc1ccc(Cn2nnc(-c3cccc(C(=O)NCc4cccc(C(F)(F)F)c4)c3)n2)cc1` [Example 14, 3-[2-(4-Methoxy-benzyl)-2H-tetrazol-5-yl]-N-(3-trifluoromethyl-benzyl)-benzamide], the melting point fell in the range of 162 to 163 °C.

`COc1ccc(Cn2nnc(-c3cccc(C(=O)NCc4ccc5nsnc5c4)c3)n2)cc1` [Example 15, N-2,1,3-Benzothiadiazol-5-ylmethyl-3-[2-(4-methoxy-benzyl)-2H-tetrazol-5-yl]-benzamide] displayed a melting point of 207 to 208 °C. `COc1ccc(Cn2nnc(-c3cccc(C(=O)NCc4ccnc(OC)c4)c3)n2)cc1` [Example 16, 3-[2-(4-Methoxy-benzyl)-2H-tetrazol-5-yl]-N-(2-methoxy-pyridin-4-ylmethyl)-benzamide] showed a melting point of 166 to 169 °C.

`COc1ccc(Cn2nnc(-c3cccc(C(=O)NCc4ccccc4)c3)n2)cc1` [Example 17, N-Benzyl-3-[2-(4-methoxy-benzyl)-2H-tetrazol-5-yl]-benzamide] showed a melting point of 169 to 170 °C. `COc1ccc(Cn2nnc(-c3cccc(C(=O)NCc4ccncc4)c3)n2)cc1` [Example 18, 3-[2-(4-Methoxy-benzyl)-2H-tetrazol-5-yl]-N-pyridin-4-ylmethyl-benzamide]: the melting point lay within 163 to 164 °C. In turn, `COc1ccc(CNC(=O)c2cccc(-c3nnn(Cc4ccc(OC)cc4)n3)c2)cc1` [Example 26, N-(4-Methoxy-benzyl)-3-[2-(4-methoxy-benzyl)-2H-tetrazol-5-yl]-benzamide] displayed a melting point of 159 to 160 °C. The same measure, in the same setting: the figure for `C/C=C/Cn1nnc(-c2cccc(C(=O)NCc3ccccc3)c2)n1` [Example 27, N-Benzyl-3-(2-but-2-enyl-2H-tetrazol-5-yl)-benzamide] is 100 to 101 °C. In the case of `N#Cc1ccc(Cn2nnc(-c3cccc(C(=O)NCc4ccccc4)c3)n2)cc1` [Example 29, N-Benzyl-3-[2-(4-cyano-benzyl)-2H-tetrazol-5-yl]-benzamide], the melting point was in the range of 191 to 192 °C. Compound `COC(=O)c1ccc(CNC(=O)c2cc(-c3nnn(Cc4ccc(OC)cc4)n3)ccc2OC)cc1` [Example 35] had a melting point of 177 to 178 °C. Still for that read-out and setting: the figure for `COc1ccc(Cn2nnc(-c3ccc(OC)c(C(=O)NCc4ccc(C(=O)O)cc4)c3)n2)cc1` [Example 36, 4-({2-Methoxy-5-[2-(4-methoxy-benzyl)-2H-tetrazol-5-yl]-benzoylamino}-methyl)-benzoic acid] is 207 to 209 °C; for `COc1ccc(Cn2nnc(-c3ccc(OC)c(C(=O)NCc4ccc(C(F)(F)F)cc4)c3)n2)cc1` [Example 37, 2-Methoxy-5-[2-(4-methoxy-benzyl)-2H-tetrazol-5-yl]-N-(4-trifluoromethyl-benzyl)-benzamide] it is 188 to 190 °C.

`O=S(=O)(O)c1ccc(Cn2nnc(-c3cccc(C#CCc4ccc(F)cc4)c3)n2)cc1` [Example D1, 4-(5-{3-[3-(4-Fluoro-phenyl)-prop-1-ynyl]-phenyl}-tetrazol-2-ylmethyl)-benzenesulfonic acid]: the melting point lay in the range of 151 to 152 °C. Also, the IC50 at MMP-13 catalytic domain is 0.0045 µM. As to `O=C(O)COc1ccc(Cn2nnc(-c3cccc(C#CCc4ccc(F)cc4)c3)n2)cc1` [Example D3, [4-(5-{3-[3-(4-Fluoro-phenyl)-prop-1-ynyl]-phenyl}-tetrazol-2-ylmethyl)-phenoxy]-acetic acid], the melting point lay in the range of 158.2 to 159.6 °C. The IC50 on MMP-13 catalytic domain was found to be 0.007 µM. With `NS(=O)(=O)c1ccc(Cn2nnc(-c3cccc(C#CCc4ccccc4)c3)n2)cc1` [Example D4, 4-{5-[3-(3-Phenyl-prop-1-ynyl)-phenyl]-tetrazol-2-ylmethyl}-benzenesulfonamide], the melting point lay in the range of 158 to 159 °C. The IC50 on MMP-13 catalytic domain is 0.15 µM. Take `CS(=O)(=O)c1ccc(Cn2nnc(-c3cccc(C#CCc4ccc(F)cc4)c3)n2)cc1` [Example D5, 5-{3-[3-(4-Fluoro-phenyl)-prop-1-ynyl]-phenyl}-2-(4-methanesulfonyl-benzyl)-2H-tetrazole]: the melting point was 101 to 104 °C. Also, on MMP-13 catalytic domain, the IC50 was determined as 0.15 µM.

The compound `CS(=O)(=O)c1ccc(Cn2nnc(-c3ccnc(C(=O)NCc4ccncc4)c3)n2)cc1` [Example F3, 4-[2-(4-Methanesulfonyl-benzyl)-2H-tetrazol-5-yl]-pyridine-2-carboxylic acid (pyridin-4-ylmethyl)-amide] had a melting point of 143 to 144 °C. Besides, the IC50 on MMP-13 catalytic domain amounted to 0.022 µM. `CS(=O)(=O)c1ccc(Cn2nnc(-c3ccnc(C(=O)NCc4cncnc4)c3)n2)cc1` [Example F4, 4-[2-(4-Methanesulfonyl-benzyl)-2H-tetrazol-5-yl]-pyridine-2-carboxylic acid (pyrimidin-5-ylmethyl)-amide]: the melting point was 178 to 179 °C. Besides, on MMP-13 catalytic domain, the IC50 was found to be 0.21 µM. For the compound `N#Cc1ccc(Cn2nnc(-c3ccnc(C(=O)NCc4ccncc4)c3)n2)cc1` [Example F5, 4-[2-(4-Cyano-benzyl)-2H-tetrazol-5-yl]-pyridine-2-carboxylic acid (pyridin-4-ylmethyl)-amide], the melting point was 178 to 179 °C. Further, the IC50 on MMP-13 catalytic domain came to 0.024 µM. Regarding `COc1ccc(CNC(=O)c2cc(-c3nnn(Cc4ccc(S(C)(=O)=O)cc4)n3)ccn2)cc1` [Example F6, 4-[2-(4-Methanesulfonyl-benzyl)-2H-tetrazol-5-yl]-pyridine-2-carboxylic acid 4-methoxy-benzylamide], the melting point is 145 to 146 °C. At MMP-13 catalytic domain, the IC50 is 0.024 µM. As for `CS(=O)(=O)c1ccc(Cn2nnc(-c3ccnc(C(=O)NCc4cccnc4)c3)n2)cc1` [Example F7, 4-[2-(4-Methanesulfonyl-benzyl)-2H-tetrazol-5-yl]-pyridine-2-carboxylic acid (pyridin-3-ylmethyl)-amide], the melting point lay within 174 to 175 °C. The IC50 on MMP-13 catalytic domain was determined as 0.11 µM. The corresponding values for `CS(=O)(=O)c1ccc(Cn2nnc(-c3ccnc(C(=O)NCc4ccc(Oc5ccccc5)cc4)c3)n2)cc1` [Example F8, 4-[2-(4-Methanesulfonyl-benzyl)-2H-tetrazol-5-yl]-pyridine-2-carboxylic acid 4-phenoxy-benzylamide] are 100 to 103 °C and 0.19 µM. In turn, `CS(=O)(=O)c1ccc(Cn2nnc(-c3ccnc(C(=O)NC4CCc5ccccc54)c3)n2)cc1` (stereo not shown) [Example F9, 4-[2-(4-Methanesulfonyl-benzyl)-2H-tetrazol-5-yl]-pyridine-2-carboxylic acid indan-1-ylamide] came in with a melting point of 147 to 150 °C. `CS(=O)(=O)c1ccc(Cn2nnc(-c3ccnc(C(=O)NCc4ccc(Cl)c(Cl)c4)c3)n2)cc1` [Example F10, 4-[2-(4-Methanesulfonyl-benzyl)-2H-tetrazol-5-yl]-pyridine-2-carboxylic acid 3,4-dichloro-benzylamide] showed a melting point of 150 to 152 °C. Moreover, the IC50 at MMP-13 catalytic domain turned out to be 0.047 µM. Regarding `CS(=O)(=O)c1ccc(Cn2nnc(-c3ccnc(C(=O)NCc4ccc(-n5cccn5)cc4)c3)n2)cc1` [Example F11, 4-[2-(4-Methanesulfonyl-benzyl)-2H-tetrazol-5-yl]-pyridine-2-carboxylic acid 4-pyrazol-1-yl-benzylamide], the melting point was 173 to 174 °C. Besides, the IC50 at MMP-13 catalytic domain was determined as 11 µM. The compound `O=C(O)c1ccc(Cn2nnc(-c3cccc(C#Cc4ccccc4)c3)n2)cc1` [Example G1, 4-[5-(3-Phenylethynyl-phenyl)-tetrazol-2-ylmethyl]-benzoic acid] registered a melting point of 226 to 228 °C. In addition, at MMP-13 catalytic domain, the IC50 was 0.69 µM.

Consider `O=C(O)c1ccc(Cn2nnc(-c3cccc(C#CCCc4ccccc4)c3)n2)cc1` [Example G2, 4-{5-[3-(4-Phenyl-but-1-ynyl)-phenyl]-tetrazol-2-ylmethyl}-benzoic acid], for which the melting point fell in the range of 198 to 199 °C. For the same compound, the IC50 on MMP-13 catalytic domain is 0.28 µM. For the compound `CC(C)CC#Cc1cccc(-c2nnn(Cc3ccc(C(=O)O)cc3)n2)c1` [Example G3, 4-{5-[3-(4-Methyl-pent-1-ynyl)-phenyl]-tetrazol-2-ylmethyl}-benzoic acid], the melting point was in the range of 192 to 193 °C. Consider `O=C(O)c1ccc(Cn2nnc(-c3cncc(C#CCc4ccccc4)c3)n2)cc1` [Example H1, 4-{5-[5-(3-Phenyl-prop-1-ynyl)-pyridin-3-yl]-tetrazol-2-ylmethyl}-benzoic acid], for which the melting point was in the range of 211 to 213 °C. Further, the IC50 on MMP-13 catalytic domain is 0.01 µM. `O=C(O)Cc1ccc(Cn2nnc(-c3cccc(C#CCc4ccc(F)cc4)c3)n2)cc1` [Example I1, [4-(5-{3-[3-(4-Fluoro-phenyl)-prop-1-ynyl]-phenyl}-tetrazol-2-ylmethyl)-phenyl]-acetic acid] gave a melting point of 158 to 159 °C. For the same compound, at MMP-13 catalytic domain, the IC50 is 0.0026 µM. For `O=C(O)C1CCC(Cn2nnc(-c3cccc(C#CCc4ccc(F)cc4)c3)n2)CC1` (stereo not shown) [Example I2, 4-(5-{3-[3-(4-Fluoro-phenyl)-prop-1-ynyl]-phenyl}-tetrazol-2-ylmethyl)-cyclohexanecarboxylic acid], in that order: 172 to 173 °C and 0.0012 µM.

These data come from patent US20090029995A1, “HETERO BIARYL DERIVATIVES AS MATRIX METALLOPROTEINASE INHIBITORS” (WARNER-LAMBERT COMPANY, priority 2002, published 2009).
